Assays:
Hsp70i = Hsp70i (Homo sapiens, UniProt P0DMV8); test: Thermofluor assay, purified Hsp70i; type: binding; parameters: Full length Hsp70 (black arrow) and tryptic fragments (blue arrows); His tag (cleaved yes); made in house; details: for effect on Tm of Hsp70i: compound alone; for increase of the Tm of Hsp70i: nucleotide alone, FIG. 4E/4G
Description: Protein Purification: Plasmids were provided for human HSPA1A, HSPA8, and HSPA1A C306D. Plasmids were transformed in Rosetta competent cells and single colonies were picked from streaked LB/ampicillin/chloramphenicol plates. Cultures were grown at 37° C. for 4-6 hours, were cooled to 15° C. and expression was induced overnight with 200 uM isopropyl 1-thio-β-D-galactopyranoside. Cells were pelleted and resuspended in Ni-lysis buffer (50 mM Na2HPO4, 300 mM NaCl, 10 mM Imidazole, 0.05% Tween-20) supplemented with Complete Mini protease inhibitor tablets (Roche, Mannheim, Germany) and […], and then sonicated. The cells were again pelleted and the supernatant was incubated with complete His-Tag purification resin (Roche, Mannheim, Germany) for 5 hours at 4° C. The resin was washed with Ni-wash buffer (50 mM Na2HPO4, 300 mM NaCl, 20 mM Imidazole, 0.05% Tween-20) and eluted with Ni-elution buffer (50 mM Na2HPO4, 300 mM NaCl, 250 mM Imidazole, 0.05% Tween-20). The elution was then incubated with tobacco etch virus protease overnight at 4° C. The following day the elution was incubated with the γ-phosphate ATP sepharose resin for 30 minutes at 4° C. Next the resin was washed with ATP-wash buffer (50 mMTris-HCl, 60 mM MgCl2, 60 mM KCl, 10 mM Citrate) supplemented with 1 mM DTT and then ATP-wash buffer supplemented with 2 mM ATP was added to the resin to elute the protein. The final elutions were concentrated in Amicon Ultra-15 Centrifugal Filter Units (EMD Millipore, Billerica, Mass.) and buffer exchanged into 25 mM HEPES, 5 mM MgCl2, 10 mM KCl (pH 7.5) and stored at −80° C. until use.
(§1) Thermofluor Assay: SYPRO orange (Molecular Probes, Eugene, Oreg.) was diluted 1:1000 in 25 mM HEPES, 5 mM MgCl2, 10 mM KCl (pH 7.5) and purified Hsp70i, Hsc70, Hsp70i C306, or Hsp90, was then added to a final dilution of 0.04 mg/ml. Where indicated 0.001% or 0.01% Triton X-100 (Sigma) was also added. The indicated compound or DMSO was then added at the specified concentration and each sample was added as 5 replicates to a 384 well plate (BioRad, Hercules, Calif.). A melt curve protocol (25° C. to 90° C., increasing 0.5° C. and a plate reading every 30 seconds) was run on a CFX384 Touch™ Real-Time PCR Detection System (BioRad). To determine the midpoint of the protein unfolding transition or Tm, GraphPad Prisim4 (La Jolla, Calif.) was used to normalize the melt curve and to calculate the first derivate of the melt curve, with the steepest point of the slope being the Tm.

GFP-Hsp70i = molecular target: T1, GFP-Hsp70i (Homo sapiens, UniProt P0DMV8); test: FLECS elution of GFP-Hsp70i from γ-phosphate-linked ATP resin; type: binding
T1 construct: host or cells: HEK 293T
T1 sequence (P0DMV8 whole entry): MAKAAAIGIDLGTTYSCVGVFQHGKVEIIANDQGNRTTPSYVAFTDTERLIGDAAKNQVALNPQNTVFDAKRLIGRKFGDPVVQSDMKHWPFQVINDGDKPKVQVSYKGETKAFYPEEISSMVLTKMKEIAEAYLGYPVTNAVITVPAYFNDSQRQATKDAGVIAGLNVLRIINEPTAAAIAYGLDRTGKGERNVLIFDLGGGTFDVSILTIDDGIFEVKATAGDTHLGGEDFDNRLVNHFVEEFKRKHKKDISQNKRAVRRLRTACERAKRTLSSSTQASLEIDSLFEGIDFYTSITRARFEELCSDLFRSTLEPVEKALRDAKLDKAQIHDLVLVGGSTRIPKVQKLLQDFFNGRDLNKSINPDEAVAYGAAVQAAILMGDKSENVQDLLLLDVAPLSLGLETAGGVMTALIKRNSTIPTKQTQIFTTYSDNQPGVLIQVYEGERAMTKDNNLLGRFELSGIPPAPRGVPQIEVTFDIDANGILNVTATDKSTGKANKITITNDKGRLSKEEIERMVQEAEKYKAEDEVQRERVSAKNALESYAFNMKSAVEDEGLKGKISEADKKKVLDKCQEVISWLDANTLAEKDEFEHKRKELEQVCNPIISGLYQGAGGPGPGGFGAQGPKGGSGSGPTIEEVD
Description: (§2) FLECS Screen: A pEGFP-tagged Hsp70i was (plasmid 15215, Addgene, Cambridge, Mass.) used in the FLECS assay and was originally cloned according to [Zeng et al. (2004). Hsp70 dynamics in vivo: effect of heat shock and protein aggregation. Journal of cell science 117, 4991-5000]. ATP used in the assay was purchased from Sigma (St. Louis, Mo.) and a 200 mM stock was prepared with low salt buffer (150 mM NaCl, 25 mM Tris, pH 7.5, 60 mM MgCl2). The γ-phosphate ATP sepharose was synthesized as previously described and stored in low salt buffer [Haystead et al. (1993). Gamma-phosphate-linked ATP-sepharose for the affinity purification of protein kinases. Rapid purification to homogeneity of skeletal muscle mitogen-activated protein kinase kinase. European journal of biochemistry/FEBS 214, 459-467]. FuGENE 6 transfection reagent (Roche, Mannheim, Germany) was used for transfection of GFP-Hsp70i into HEK 293T cells, following the manufacturer protocol. The transfection ensued for 48 hours, upon which time the cells were harvested and lysed in cell lysis buffer (150 mM NaCl, 50 mM Tris, pH 7.5, 1% Triton X-100, 1 mM EDTA, 1 mM DTT, and 1 tablet Complete Mini protease inhibitor (Roche)). Cell lysates were stored at −80° C. until further use. Upon binding the resin lysates were washed 3× with high stringency wash buffer (1 M NaCl, 25 mM Tris, pH 7.5, 60 mM MgCl2, 1 mM DTT) and 3× with low stringency wash buffer (150 mM NaCl, 25 mM Tris, pH 7.5, 60 mM MgCl2, 1 mM DTT). […]
Assembly of a focused library, consisting of 3379 purine like compounds, was described previously [Carlson et al. (2013). Fluorescence Linked Enzyme Chemoproteomic Strategy for Discovery of a Potent and Selective DAPK1 and ZIPK Inhibitor. […] The lysates were eluted from the filter plate onto a catch plate by centrifugation and the fluorescence of the eluates was measured. […] Next, the presence of GFP-Hsp70i in the eluates from the 197 primary hits was determined by Western blot. […]

Her2 and Akt = test: Degradation assay (Western blot of client proteins); type: cell-based; details: compound alone
Description: Western Blotting: SDS-PAGE was carried out using Criterion™ Cell system using pre-casted 4-20% or 4-15% Criterion™ Tris-HCl gels (BioRad, Hercules, Calif.). For Western blotting gels were run at 200V for 1 hour using the PowerPac basic power supply (BioRad, Hercules, Calif.). Next, gels were transferred to nitrocellulose for blotting at 100V for 1 hour (Fisher Scientific, Waltham, Mass.). Nitrocellulose membranes were blocked with 5% dry non-fat milk in phosphate-buffered saline (PBS) with 0.01% Tween-20 for 1 hour at room temperature. Membranes were incubated with primary antibodies (1:1000 dilution) overnight at 4° C. The next day membranes were washed 3× in PBS-Tween, incubated for 1 hour at room temperature with secondary antibodies, and further washed 3× in PBS-Tween. ECL Plus Western blotting reagent (Pierce Biotechnology, Rockford, Ill.) was used to detect antibodies. GFP, Her2, Akt, Hsp70, Hsc70, Grp78, Grp75, and Hsp90 primary antibodies and all associated secondary antibodies were purchased from Cell Signaling Technology (Danvers, Mass.).
Degradation Assay: The specified cells were seeded overnight and then treated with the indicated concentration of compound for 24 hours. The cells were then harvested and subjected to analysis by Western blot.

Hsp90 = test: Thermofluor assay, Hsp90; type: binding
Description: as §1

SkBr3 = test: Cell proliferation, SkBr3; type: cell-based
Description: (§3) Cell Proliferation: Cell proliferation was determined using a Hoechst stain (Sigma, St. Louis, Mo.) to quantify DNA. 5,000 cells of the designated cell line were plated in 96 well plates and treated the next day, designated as time point 0, with the indicated concentration of the specified compound maintained for the duration of the assay. At the indicated time points the media was removed and plated frozen at −80° C. Double distilled H2O was then added and the plates were incubated at 37° C. for 1 hour. After 1 hour the plates were frozen at −80° C. After freezing the plates were thawed and Hoechst stain was diluted 1:1000 in THE buffer (10 mM Tris, 2M NaCl, 1 mM Na2EDTA). The final fluorescence was measured on the Victor X2 plate reader at 355/460 nm, and cell proliferation was determined with the formula: % Cell Proliferation=100×(Sample fluorescence−background fluorescence)/(Control fluorescence−background fluorescence).

MCF7 = test: Cell proliferation, MCF7; type: cell-based
Description: as §3

[1] = test system: Hsp70i, Hsc70, Grp78, Grp75, Hsp90; test: Elution of HEK 293T cell lysate proteins from the ATP resin (silver stain, Western blot); type: binding; details: Western blot
Description: as §2, with “DTT). Next the lysates were transferred to 0.2 μm PVDF filter 96-well plate (Corning, Corning, N.Y.) sitting on top of a black flat-bottomed 96-well catch plate (Corning).” for “DTT).”
HS-72 specifically targets Hsp70i over other members of the Hsp70 superfamily. […] To more thoroughly determine the specificity of HS-72 for Hsp70i, the HEK 293T eluates were also analyzed for other Hsp70 family members Hsc70, Grp78, and Grp75, as well as Hsp90 by Western blot. […] The linker on the resin was cleaved using sodium dithionite and the samples were subjected to SDS-PAGE and analyzed by Western blot, silver stain, and mass spectrometry. […]

Chain of Hsp70i (P0DMV8 whole entry, the tested form may be a part): as the sequence (P0DMV8 whole entry) above

N#Cc1ccc(COC[C@H]2O[C@@H](n3c(NCc4ccc(Cl)c(Cl)c4)nc4c(N)ncnc43)[C@H](O)[C@@H]2O)cc1 [VER, VER-15508, reference compound]
effect on Tm of Hsp70i (Hsp70i): increase

Nc1ncnc2c1ncn2[C@@H]1O[C@H](COP(=O)(O)OP(=O)(O)O)[C@@H](O)[C@H]1O [ADP, reference compound]
effect on Tm of Hsp70i (Hsp70i): increase the Tm of Hsp70i in a dose dependent manner | increase of the Tm of Hsp70i (Hsp70i): 2.5 °C | nucleotide concentration needed to release bound GFP-Hsp70i from the γ-linked ATP resin (GFP-Hsp70i): mM

Cc1nn(-c2ccc(C(N)=O)c(N[C@H]3CC[C@H](O)CC3)c2)c2c1C(=O)CC(C)(C)C2 [HS-10, 2-(((1r,4r)-4-hydroxycyclohexyl)amino)-4-(3,6,6-trimethyl-4-oxo-4,5,6,7-tetrahydro-1H-indazol-1-yl)benzamide, reference compound]
Hsp70 protein levels (Her2 and Akt): increased Hsp70 protein levels | Akt and Her2 expression (Her2 and Akt; BT474 breast cancer cells): induced degradation of Her2 and Akt | increase of the Tm of Hsp90 (Hsp90): 10.5 °C | Tm of Hsp90 in presence of compound (Hsp90; from 50° C. without compound): 60.5 °C

CCCn1c(NC(=O)[C@@H]2CCCN(c3cnccn3)C2)nc2ccccc21 [HS-71, (R)—N-(1-propyl-1H-benzo[d]imidazol-2-yl)-1-(pyrazin-2-yl)piperidine-3-carboxamide]
effect on Tm of Hsp70i (Hsp70i): does not change | effect on Tm of the ATP bound Hsp70i (Hsp70i; in presence of ATP): does not change | cell proliferation (SkBr3; SkBr3, 48 and 72 hours at 25 uM and 50 uM): inhibition in proliferation | cell proliferation (SkBr3; SkBr3, 24 hours): no effect on proliferation | cell proliferation (MCF7; MCF7, 24 hours): no effect on proliferation | cell proliferation (MCF7; MCF7, 48 hours at 25 uM and 50 uM): inhibition | cell proliferation, concentration with significant inhibition (MCF7; MCF7, 72 hours): 50 uM alone

Nc1ncnc2c1ncn2[C@@H]1O[C@H](COP(=O)(O)OP(=O)(O)OP(=O)(O)O)[C@@H](O)[C@H]1O [ATP, reference compound]
effect on Tm of Hsp70i (Hsp70i): increase the Tm of Hsp70i in a dose dependent manner | increase of the Tm of Hsp70i (Hsp70i): 3 °C | Hsp70 family members and Hsp90 eluted from the ATP resin [1]: All the Hsp70 family members and Hsp90 are eluted | nucleotide concentration needed to release bound GFP-Hsp70i from the γ-linked ATP resin (GFP-Hsp70i): low μM

NS(=O)(=O)C#Cc1ccccc1 [PES, pifithrin-μ, reference compound]
effect on Tm of Hsp70i (Hsp70i): no dose dependent effect

— patent US10000469B2, “Heat shock protein 70 (hsp-70) receptor ligands” (Duke University, priority 2014, dated 2018)
